Source: paper PMC9101373, “Design of DNA Intercalators Based on 4-Carboranyl-1,8-Naphthalimides: Investigation of Their DNA-Binding Ability and Anticancer Activity” (International Journal of Molecular Sciences, 2022)

Key:
HepG2 cells [1] = experiment: Cell migration inhibition assay (xCELLigence, CIM plates); format: cell-based, human; conditions: 24 h pre-incubation at one-fourth of IC50
Experimental: By using the xCELLigence platform, we evaluated migration potential of HepG2 cells after the administration of compounds. We incubated the cells with compounds 54–61 at the concentration corresponding to one-fourth of the IC50 value for 24 h before the analysis, and the cells were then seeded on a CIM plate. Impedance-based cell index (CI) of HepG2 cells was measured every 30 min for 72 h. […] The most significant changes were observed within the first 24 h (Figure 3A). Thus, to obtain more insight into the altered migration profile caused by the analyzed compounds, we additionally calculated the slope representing the rate of change of the cell index within the first 24 h.
Transwell cell migration experiments were performed using xCELLigence RTCA Analyzer (Roche) in Cell Invasion and Migration (CIM) plates (ACEA Biosciences, San Diego, CA, USA). Each well consisted of an upper and a lower chamber separated by a microporous polyethylene terephthalate (PET) membrane containing randomly distributed 8 μm-pores. Prior to the migration assay, HepG2 cells (15 × 10^3) were seeded onto 48-well plates containing the growth medium (EMEM) and incubated until 70–80% confluency and incubated at 37 °C in a humidified atmosphere containing 5% CO2. Subsequently, the cells were treated for 24 h with the tested compounds at the final concentration corresponding to the one-fourth of IC50 value. Next, 160 μL of complete growth medium (supplemented with 10% FBS) was added to the lower chamber and 50 μL of serum-free growth medium to the upper chambers of CIM plate. The plates were incubated at 37 °C and 5% CO2 saturation for 1 h prior to insertion into the xCELLigence platform. To initiate a transwell migration experiment, cells were detached, resuspended in the serum-free growth medium, and seeded in the upper chamber at a density of 1 × 10^4 cells in 100 μL per well, previously treated with the compounds. The impedance of the microelectrode array was monitored and converted to the cell index (CI). Normalization values were recorded using the RTCA Software 1.2.1. […]
Figure 3 Real-time migration potential of HepG2 cells after 24 h administration of compounds 54–61. The migration potential of the cells was monitored using the xCELLigence system. HepG2 cells were incubated with the analyzed compounds for 24 h before the analysis at the concentration corresponding to one-fourth of the IC50 value. The impedance (cell index values) was measured every 30 min for the next 72 h. To eliminate the influence of the solvent, DMSO was added to the cells in a volume that corresponded to the highest compound concentration (A). The slope parameter represents the rate of changes in CI values of HepG2 cells within the first 24 h (B). […]

HepG2 cells [2] = experiment: Apoptosis/necrosis assay by flow cytometry (Annexin V); format: cell-based, human; conditions: HepG2, 24 h at total IC50, Annexin V
Experimental: To investigate whether compounds 54–61 induced apoptosis in HepG2 cells, we incubated the cells with these compounds for 24 h and performed a flow cytometry analysis. The concentration chosen for each compound corresponded to their total IC50 values. After incubation, the cells were stained with Annexin V Alexa Fluor 647 conjugate, which enabled detection of the externalization of phosphatidylserine, one of the earliest indicators of apoptosis. To eliminate the influence of the solvent (DMSO), we also analyzed its ability to induce apoptosis in a volume that corresponded to the highest concentration. […] The other compounds, 57, 58, 59, and 61, could not induce as high apoptosis as those mentioned above. Approximately one-third of cells targeted apoptotic pathways (33.4%, 39.1%, 23.1%, and 37.1%, respectively) when treated with these compounds (Figure 6).
HepG2 cells (3.85 × 10^5) were seeded onto 6-well plates, cultured in supplemented EMEM medium (Corning®) at 37 °C and 5% CO2 saturation, and incubated until 70–80% cell confluency was achieved. Subsequently, the cells were treated for 24 h, with the tested compounds 54–61 were added at a concentration corresponding to their total IC50 values. Next, the cells were detached with trypsin (Corning®) and washed twice with DPBS (1 mL) (Thermo Fisher Scientific, Waltham, MA, USA). In the meantime, annexin-binding buffer (10 mM HEPES, 140 mM NaCl, and 2.5 mM CaCl2, pH 7.4) was prepared. The cells were resuspended in annexin-binding buffer (100 μL per assay) and stained with Alexa Fluor™ 680 annexin V conjugate (ex/em: ~679/702 nm, Thermo Fisher Scientific, Waltham, MA, USA) according to the manufacturer’s protocol (5 μL of the annexin V conjugate was added to each 100 μL of cell suspension) and incubated for 15 min at RT, in the dark. After the incubation period, annexin-binding buffer (400 μL) was added, mixed gently, and the samples were kept on ice during the analysis. The cells were analyzed immediately after staining with […] by Accuri C6 flow cytometer (Becton Dickinson, Franklin Lake, NJ, USA) with excitation at 635 nm. The rate of apoptosis was evaluated immediately by FlowJo software.
Figure 6 Effect of compounds 54 (5.5 µM), 55 (3.4 µM), 56 (12 µM), 57 (3.1 µM), 58 (3.9 µM), 59 (5.4 µM), 60 (31 µM), and 61 (4.8 µM) on cell death in HepG2 cells. The cells were incubated with the tested compounds for 24 h at the concentration corresponding to the total IC50 values. Quantitative flow cytometry analysis was performed to evaluate apoptosis/necrosis induced by compounds after 24 h of treatment. Data are presented as the mean ± SD of three independent experiments. Statistical significance is indicated with asterisks: (ns) p > 0.05, (**) p < 0.01, (***) p < 0.001, and (****) p < 0.0001.

N-[2-(Pyrrolidin-1-yl)ethyl]-4-[(2-(2-(1,7-dicarba-closo-dodecaborane-1-yl)-ethylamino)ethyl)amino]-1,8-naphthalimide [Compound 57]
effect on migration potential of HepG2 cells (cell index, slope in first 24 h) (HepG2 cells [1]): influenced the migratory activity most | apoptosis rate, apoptotic cells (HepG2 cells [2]): 33.4%

N-[2-(Dimethylamino)ethyl]-4-[(6-(2-(1,2-dicarba-closo-dodecaborane-1-yl)-ethylamino)hexyl)amino]-1,8-naphthalimide [Compound 58]
apoptosis rate, apoptotic cells (HepG2 cells [2]): 39.1%

N-[2-(Dimethylamino)ethyl]-4-[(6-(2-(1,7-dicarba-closo-dodecaborane-1-yl)-ethylamino)hexyl)amino]-1,8-naphthalimide [Compound 59]
apoptosis rate, apoptotic cells (HepG2 cells [2]): 23.1%

N-[2-N-Pyrrolidinyl)ethyl]-4-[(6-(2-(1,7-dicarba-closo-dodecaborane-1-yl)-ethylamino)hexyl)amino]-1,8-naphthalimide [Compound 61]
effect on migration potential of HepG2 cells (cell index, slope in first 24 h) (HepG2 cells [1]): highest impairment | apoptosis rate, apoptotic cells (HepG2 cells [2]): 37.1%

N-[2-N-Pyrrolidinyl)ethyl]-4-[(6-(2-(1,2-dicarba-closo-dodecaborane-1-yl)-ethylamino)hexyl)amino]-1,8-naphthalimide [Compound 60]
effect on migration potential of HepG2 cells (cell index, slope in first 24 h) (HepG2 cells [1]): influenced the migratory activity most | apoptosis rate, apoptotic cells (HepG2 cells [2]): 46.9%

N-[2-(Dimethylamino)ethyl]-4-[(2-(2-(1,2-dicarba-closo-dodecaborane-1-yl)-ethylamino)ethyl)amino]-1,8-naphthalimide [Compound 54]
apoptosis rate, apoptotic cells (HepG2 cells [2]): 44.3%

N-[2-(Dimethylamino)ethyl]-4-[(2-(2-(1,7-dicarba-closo-dodecaborane-1-yl)-ethylamino)ethyl)amino]-1,8-naphthalimide [Compound 55]
apoptosis rate, apoptotic cells (HepG2 cells [2]): 48.2%

N-[2-(Pyrrolidin-1-yl)ethyl]-4-[(2-(2-(1,2-dicarba-closo-dodecaborane-1-yl)-ethylamino)ethyl)amino]-1,8-naphthalimide [Compound 56]
effect on migration potential of HepG2 cells (cell index, slope in first 24 h) (HepG2 cells [1]): influenced the migratory activity most | apoptosis rate, apoptotic cells (HepG2 cells [2]): 77.4%
